According to US7629340B2, “N-(6-membered aromatic ring)-amido anti-viral compounds” (SmithKline Beecham Corporation, priority 2005, dated 2009):

Test: Replicon Assay (luciferase, ET cell line)
Format: cell-based, HCV
Conditions: Hepatitis C virus; % inhibition of replication relative to no compound control, test concentration of 10 μM; ET cells, luciferase read 48-72 hours; read-out: % inhib at 10 uM
Procedure: A cell line, ET (Huh-lucubineo-ET) was used for screening of compounds of the present invention for HCV RNA dependent RNA polymerase. The ET cell line was stably transfected with RNA transcripts harboring a I389luc-ubi-neo/NS3-3′/ET; replicon with firefly luciferase-ubiquitin-neomycin phosphotransferase fusion protein and EMCV-IRES driven NS3-5B polyprotein containing the cell culture adaptive mutations (E1202G; T1280I; K1846T) (Krieger at al, 2001 and unpublished). The ET cells were grown in DMEM, supplemented with 10% fetal calf serum, 2 mM Glutamine, Penicillin (100 IU/mL)/Stretomycin (100 μg/mL), 1× nonessential amino acids, and 250 μg/mL G418 (“Geneticin”). They were all available through Life Technologies (Bethesda, Md.). The cells were plated at 0.5−1.0×10^4 cells/well in the 96 well plates and incubated for 24 hrs before adding nucleoside analogs. […] Luciferase activity were measured 48-72 hours later by adding a lysis buffer and the substrate (Catalog number Glo-lysis buffer E2661 and Bright-Glo luciferase system E2620 Promega, Madison, Wis.). Cells should not be too confluent during the assay. Percent inhibition of replication was plotted relative to no compound control. Under the same condition, cytotoxicity of the compounds was determined using cell proliferation reagent, WST-1 (Roche, Germany). The compounds showing antiviral activities, but no significant cytotoxicities were chosen to determine IC50 and TC50. For these determinations, 10 concentration of each compound were used. Concentrations for test compounds typically span a range of 500 fold. IC50 and TC50 values were calculated by fitting % inhibition at each concentration (I) to the following equation: % inhibition=100%/[1+10^(log IC50−log(I))*b] where b is Hill's coefficient.

Structure (SMILES): CC(=O)Nc1ccc(-c2cccc(NC(=O)[C@@H]3CCCN3C(=O)OCc3ccccc3)c2)cc1 [Compound 6056, 2-(4′-Acetylamino-biphenyl-3-ylcarbamoyl)-pyrrolidine-1-carboxylic acid benzyl ester]
- inhibition at 10 µM: 80.8%

Structure (SMILES): CC(=O)Nc1cccc(-c2cccc(NC(=O)[C@@H]3CCCN3C(=O)OCc3ccccc3)c2)c1 [Compound 6057, 2-(3′-Acetylamino-biphenyl-3-ylcarbamoyl)-pyrrolidine-1-carboxylic acid benzyl ester]
- inhibition at 10 µM: 61.7%

Structure (SMILES): O=C(Nc1cccc(-c2cccc3[nH]ccc23)c1)[C@@H]1CCCN1C(=O)OCc1ccccc1 [Compound 6082, 2-[3-(1H-Indol-4-yl)-phenylcarbamoyl]-pyrrolidine-1-carboxylic acid benzyl ester]
- inhibition at 10 µM: 97.4%

Structure (SMILES): O=C1Cc2cc(-c3cccc(NC(=O)[C@@H]4CCCN4C(=O)OCc4ccccc4)c3)ccc2N1 [Compound 6083, 2-[3-(2-Oxo-2,3-dihydro-1H-indol-5-yl)-phenylcarbamoyl]-pyrrolidine-1-carboxylic acid benzyl ester]
- inhibition at 10 µM: 93.8%

Structure (SMILES): O=C1Nc2ccc(-c3cccc(NC(=O)[C@@H]4CCCN4C(=O)OCc4ccccc4)c3)cc2C1=O [Compound 6084, 2-[3-(2,3-Dioxo-2,3-dihydro-1H-indol-5-yl)-phenylcarbamoyl]-pyrrolidine-1-carboxylic acid benzyl ester]
- inhibition at 10 µM: 3.35%

Structure (SMILES): Cc1ccc2cc(-c3cccc(NC(=O)[C@@H]4CCCN4C(=O)OCc4ccccc4)c3)ccc2n1 [Compound 6085, 2-[3-(2-Methyl-quinolin-6-yl)-phenylcarbamoyl]-pyrrolidine-1-carboxylic acid benzyl ester]
- inhibition at 10 µM: 39.7%

Structure (SMILES): Nc1ccc(-c2cccc(NC(=O)[C@@H]3CCCN3C(=O)OCc3ccccc3)c2)cc1 [Compound 6086, 2-(4′-Amino-biphenyl-3-ylcarbamoyl)-pyrrolidine-1-carboxylic acid benzyl ester]
- inhibition at 10 µM: 89.9%

Structure (SMILES): CC(=O)c1cccc(-c2cccc(NC(=O)[C@@H]3CCCN3C(=O)OCc3ccccc3)c2)c1 [Compound 6087, 2-(3′-Acetyl-biphenyl-3-ylcarbamoyl)-pyrrolidine-1-carboxylic acid benzyl ester]
- inhibition at 10 µM: 78.9%

Structure (SMILES): O=C(Nc1cccc(-c2ccc3cc(O)ccc3c2)c1)[C@@H]1CCCN1C(=O)OCc1ccccc1 [Compound 6088, 2-[3-(6-Hydroxy-naphthalen-2-yl)-phenylcarbamoyl]-pyrrolidine-1-carboxylic acid benzyl ester]
- inhibition at 10 µM: 99.9%

Structure (SMILES): CNc1cccc(-c2cccc(NC(=O)[C@@H]3CCCN3C(=O)OCc3ccccc3)c2)c1 [Compound 6089, 2-(3′-Methylamino-biphenyl-3-ylcarbamoyl)-pyrrolidine-1-carboxylic acid benzyl ester]
- inhibition at 10 µM: 76.4%

Structure (SMILES): Cc1c(N)cccc1-c1cccc(NC(=O)[C@@H]2CCCN2C(=O)OCc2ccccc2)c1 [Compound 6090, 2-(3′-Amino-2′-methyl-biphenyl-3-ylcarbamoyl)-pyrrolidine-1-carboxylic acid benzyl ester]
- inhibition at 10 µM: 59.6%

Structure (SMILES): Cc1nc2cc(-c3cccc(NC(=O)[C@@H]4CCCN4C(=O)OCc4ccccc4)c3)ccc2s1 [Compound 6091, 2-[3-(2-Methyl-benzothiazol-5-yl)-phenylcarbamoyl]-pyrrolidine-1-carboxylic acid benzyl ester]
- inhibition at 10 µM: 97.7%

Structure (SMILES): O=C(Nc1cccc(-c2cccc(O)c2)c1)[C@@H]1CCCN1C(=O)OCc1ccccc1 [Compound 6092, 2-(3′-Hydroxy-biphenyl-3-ylcarbamoyl)-pyrrolidine-1-carboxylic acid benzyl ester]
- inhibition at 10 µM: 95.3%

Structure (SMILES): NC(=O)Nc1cccc(-c2cccc(NC(=O)[C@@H]3CCCN3C(=O)OCc3ccccc3)c2)c1 [Compound 6093, 2-(3′-Ureido-biphenyl-3-ylcarbamoyl)-pyrrolidine-1-carboxylic acid benzyl ester]
- inhibition at 10 µM: 98.1%

Structure (SMILES): O=C(Nc1cccc(-c2cccc3cc[nH]c23)c1)[C@@H]1CCCN1C(=O)OCc1ccccc1 [Compound 6094, 2-[3-(1H-Indol-7-yl)-phenylcarbamoyl]-pyrrolidine-1-carboxylic acid benzyl ester]
- inhibition at 10 µM: 98.8%

Structure (SMILES): Nc1cc(-c2cccc(NC(=O)[C@@H]3CCCN3C(=O)OCc3ccccc3)c2)cc(C(F)(F)F)c1 [Compound 6095, 2-(3′-Amino-5′-trifluoromethyl-biphenyl-3-ylcarbamoyl)-pyrrolidine-1-carboxylic acid benzyl ester]
- inhibition at 10 µM: 61.6%

Structure (SMILES): CN(C)c1cccc(-c2cccc(NC(=O)[C@@H]3CCCN3C(=O)OCc3ccccc3)c2)c1 [Compound 6096, 2-(3′-Dimethylamino-biphenyl-3-ylcarbamoyl)-pyrrolidine-1-carboxylic acid benzyl ester]
- inhibition at 10 µM: 53.3%

Structure (SMILES): O=C(Nc1cccc(-c2ccc3cc[nH]c3c2)c1)[C@@H]1CCCN1C(=O)OCc1ccccc1 [Compound 6097, 2-[3-(1H-Indol-6-yl)-phenylcarbamoyl]-pyrrolidine-1-carboxylic acid benzyl ester]
- inhibition at 10 µM: 99.8%

Structure (SMILES): O=C(NC1CC1)c1ccc(-c2cccc(NC(=O)[C@@H]3CCCN3C(=O)OCc3ccccc3)c2)cc1 [Compound 6301, 2-(4′-Cyclopropylcarbamoyl-biphenyl-3-ylcarbamoyl)-pyrrolidine-1-carboxylic acid benzyl ester]
- inhibition at 10 µM: 99.1%

Structure (SMILES): O=C(NC1CC1)c1csc(-c2cccc(NC(=O)[C@@H]3CCCN3C(=O)OCc3ccccc3)c2)n1 [Compound 6302, 2-[3-(4-Cyclopropylcarbamoyl-thiazol-2-yl)-phenylcarbamoyl]-pyrrolidine-1-carboxylic acid benzyl ester]
- inhibition at 10 µM: 12.2%

Structure (SMILES): O=C(Nc1cccc(-c2ccc3ncsc3c2)c1)[C@@H]1CCCN1C(=O)OCc1ccccc1 [Compound 6304, 2-(3-Benzothiazol-6-yl-phenylcarbamoyl)-pyrrolidine-1-carboxylic acid benzyl ester]
- inhibition at 10 µM: 70.4%

Structure (SMILES): O=C(NC1CC1)c1ccc(NC(=O)[C@@H]2CCCN2C(=O)OCc2ccccc2)cc1 [Compound 6305, 2-(4-Cyclopropylcarbamoyl-phenylcarbamoyl)-pyrrolidine-1-carboxylic acid benzyl ester]
- inhibition at 10 µM: 88.2%

Structure (SMILES): N#Cc1cccc(-c2cccc(NC(=O)[C@@H]3CCCN3C(=O)OCc3ccccc3)c2)c1 [Compound 6307, 2-(3′-Cyano-biphenyl-3-ylcarbamoyl)-pyrrolidine-1-carboxylic acid benzyl ester]
- inhibition at 10 µM: 32.3%

Structure (SMILES): O=C(NCc1ccc(-c2cccc(NC(=O)[C@@H]3CCCN3C(=O)OCc3ccccc3)c2)cc1)C1CC1 [Compound 6308, 2-{4′-[(Cyclopropanecarbonyl-amino)-methyl]-biphenyl-3-ylcarbamoyl}-pyrrolidine-1-carboxylic acid benzyl ester]
- inhibition at 10 µM: 56.2%

Structure (SMILES): O=C(Nc1cccc(-c2cccc([N+](=O)[O-])c2)c1)[C@@H]1CCCN1C(=O)OCc1ccccc1 [Compound 6309, 2-(3′-Nitro-biphenyl-3-ylcarbamoyl)-pyrrolidine-1-carboxylic acid benzyl ester]
- inhibition at 10 µM: 99.8%

Structure (SMILES): O=C(NC1CC1)c1cccc(-c2cccc(NC(=O)[C@@H]3CCCN3C(=O)OCc3ccccc3)c2)c1 [Compound 6310, 2-(3′-Cyclopropylcarbamoyl-biphenyl-3-ylcarbamoyl)-pyrrolidine-1-carboxylic acid benzyl ester]
- inhibition at 10 µM: 78.4%

Structure (SMILES): O=C(NCc1cccc(-c2cccc(NC(=O)[C@@H]3CCCN3C(=O)OCc3ccccc3)c2)c1)C1CC1 [Compound 6311, 2-{3′-[(Cyclopropanecarbonyl-amino)-methyl]-biphenyl-3-ylcarbamoyl}-pyrrolidine-1-carboxylic acid benzyl ester]
- inhibition at 10 µM: 94.2%

Structure (SMILES): O=C(Cc1cccc(-c2cccc(NC(=O)[C@@H]3CCCN3C(=O)OCc3ccccc3)c2)c1)NC1CC1 [Compound 6312, 2-(3′-Cyclopropylcarbamoylmethyl-biphenyl-3-ylcarbamoyl)-pyrrolidine-1-carboxylic acid benzyl ester]
- inhibition at 10 µM: 68.6%
